# Experimental data taken from paper PMC3974814, “In Vitro Evaluation of the Inhibitory Potential of Pharmaceutical Excipients on Human Carboxylesterase 1A and 2” (PLoS ONE, 2014).
# Key:
# [1] = biological target: T1, human liver microsomes (HLM) (Homo sapiens, UniProt P23141); assay: Imidapril hydrolase activity (imidaprilat formation) of HLM; type: biochemical
# T1 construct: Pooled human liver microsomes (HLM) were purchased from BD Gentest; tissue BD Gentest (Woburn, MA); host or cells: pooled human liver microsomes
# T1 sequence (P23141 18-567): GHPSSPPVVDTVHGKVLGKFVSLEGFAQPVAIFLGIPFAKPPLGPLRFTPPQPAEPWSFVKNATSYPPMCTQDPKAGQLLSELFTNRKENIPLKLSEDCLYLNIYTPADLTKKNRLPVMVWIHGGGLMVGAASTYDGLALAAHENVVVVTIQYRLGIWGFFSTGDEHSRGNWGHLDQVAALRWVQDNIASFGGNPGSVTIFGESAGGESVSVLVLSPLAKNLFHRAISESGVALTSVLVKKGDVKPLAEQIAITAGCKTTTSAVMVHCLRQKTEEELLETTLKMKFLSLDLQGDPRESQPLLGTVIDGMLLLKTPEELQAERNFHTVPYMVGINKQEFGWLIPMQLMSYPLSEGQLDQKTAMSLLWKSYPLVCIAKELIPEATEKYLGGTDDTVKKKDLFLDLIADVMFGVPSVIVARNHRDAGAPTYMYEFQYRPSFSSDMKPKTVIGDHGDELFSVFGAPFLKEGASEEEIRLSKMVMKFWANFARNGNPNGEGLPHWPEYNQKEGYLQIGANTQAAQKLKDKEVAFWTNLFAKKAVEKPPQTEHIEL
# Description: Formation of imidaprilat from imidapril was determined according to the method described previously with a slight modification. The incubation mixture (200 μl of total volume), including the microsomes, 100 mM Tris-HCl buffer (pH 7.4) and inhibitors, was preincubated at 37°C for 2 min. The reaction was initiated by the addition of imidapril (100 μM), followed by incubation of the mixture at 37°C for 15 min. The reaction was terminated by adding 200 μl of ice-cold ethyl acetate and the mixture was next dried under N2. Cetirizine was added as an internal standard. After centrifugation at 15000 g for 5 min, imidaprilat in the supernatant (10 μl) was quantified employing a liquid chromatography-tandem mass spectrometry system. Diamonsil C18 (5 μm,150×2.1 mm) was used as the analytical column, with acetonitrile-0.1% (v/v) formic acid (1∶2, v/v) as the mobile phase at a flow rate of 0.3 mL·min^−1. […]
# The inhibitory effects of 25 excipients on imidapril and CPT-11 hydrolase activities were investigated. […] All data were analysed using the mean of duplicate determinations. […]
# (§1) The Ki, Km and Vmax values and inhibition types were determined by fitting the kinetic data to a competitive, noncompetitive, uncompetitive or mixed inhibition model by the Enzyme Kinetics Module using SigmaPlot 12.0 (Systat Software, Inc., San Jose, CA). […]
# recombinant human CES1A1 [2] = biological target: T2, recombinant human CES1A1 (Homo sapiens, UniProt P23141); assay: p-Nitrophenyl acetate hydrolase activity of recombinant CES1A1; type: biochemical
# T2 construct: purchased BD Gentest (Woburn, MA); host or cells: baculovirus-insect cells
# T2 sequence (P23141 18-567): T1 sequence (P23141 18-567)
# Description: (§2) p-Nitrophenyl acetate hydrolase activity was determined according to the methods described previously.
# (§3) To compare the inhibitory effects, the enzyme activities at 150 μM p-nitrophenyl acetate were examined. The concentrations of the tested excipients were 500 μM, except that F68, EL35, RH40, lecithin, PVP and Sodium alginate were 100 μg/ml. […] The concentration range of inhibitors was as follows: SLS, 0.02–0.5 μg/ml, RH40, 0.1–5 μg/ml, Tween 20, 0.5–15 μg/ml, and EL 35, 3–40 μg/ml.
# recombinant human CES2 = biological target: T3, recombinant human CES2 (Homo sapiens, UniProt O00748); assay: p-Nitrophenyl acetate hydrolase activity of recombinant CES2; type: biochemical
# T3 construct: purchased BD Gentest (Woburn, MA); host or cells: baculovirus-insect cells
# T3 sequence (O00748 27-559): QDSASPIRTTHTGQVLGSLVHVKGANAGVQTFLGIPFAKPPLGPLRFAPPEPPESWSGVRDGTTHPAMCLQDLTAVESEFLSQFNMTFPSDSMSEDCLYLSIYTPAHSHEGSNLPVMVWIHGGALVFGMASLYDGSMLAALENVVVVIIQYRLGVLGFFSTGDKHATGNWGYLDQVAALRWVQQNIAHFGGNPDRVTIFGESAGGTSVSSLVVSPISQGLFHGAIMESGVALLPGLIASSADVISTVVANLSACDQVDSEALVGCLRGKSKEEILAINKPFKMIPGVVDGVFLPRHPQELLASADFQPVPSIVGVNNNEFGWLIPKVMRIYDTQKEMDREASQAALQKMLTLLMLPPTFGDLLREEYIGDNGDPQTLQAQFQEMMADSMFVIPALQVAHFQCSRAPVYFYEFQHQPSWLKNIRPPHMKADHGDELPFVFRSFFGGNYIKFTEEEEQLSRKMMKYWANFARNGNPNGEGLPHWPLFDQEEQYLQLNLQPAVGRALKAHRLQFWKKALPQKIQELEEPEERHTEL
# Description: as §2, §3
# recombinant human CES1A1 [3] = biological target: T2, recombinant human CES1A1; assay: Imidapril hydrolase activity (imidaprilat formation) of recombinant CES1A1; type: biochemical
# Description: Formation of imidaprilat from imidapril was determined according to the method described previously with a slight modification. The incubation mixture (200 μl of total volume), including the microsomes, 100 mM Tris-HCl buffer (pH 7.4) and inhibitors, was preincubated at 37°C for 2 min. The reaction was initiated by the addition of imidapril (100 μM), followed by incubation of the mixture at 37°C for 15 min. The reaction was terminated by adding 200 μl of ice-cold ethyl acetate and the mixture was next dried under N2. Cetirizine was added as an internal standard. After centrifugation at 15000 g for 5 min, imidaprilat in the supernatant (10 μl) was quantified employing a liquid chromatography-tandem mass spectrometry system. Diamonsil C18 (5 μm,150×2.1 mm) was used as the analytical column, with acetonitrile-0.1% (v/v) formic acid (1∶2, v/v) as the mobile phase at a flow rate of 0.3 mL·min^−1. The calibration curve of imidaprilat in the incubation mixture was linear over a concentration range of 5–1000 ng·ml^−1 (r = 0.9991). Interday and intraday coefficients of variation of the different quality control samples were both less than 10%.
# The inhibitory effects of 25 excipients on imidapril and CPT-11 hydrolase activities were investigated. These excipients were classified into 6 groups based on their chemical and physical characteristics: (1) Adhesives: HPC, PVP, CMC-Na, PEG4000, PEG6000 and sodium alginate; (2) Fillers: lactose, MCC and mannitol; (3) Co-solvents: PG, glycerin, PEG200 and PEG400; (4) Surfactants: Tween 20, Tween 80, SLS, S40, F68, Triton X-100, RH40 and EL35; (5) Absorption enhancers: lecithin and oleic acid; (6)Antioxidants: Vit.C and NaHSO3. […] All data were analysed using the mean of duplicate determinations. […]
# as §1
# CES1A1 and CES2 = biological target: CES1A1 and CES2; set-up: method as in PMID 20810539; details: human CES enzyme activity; isoform per drug not stated; read-out: inhibition constant (Ki); cited from earlier work
# [4] = 150 μM p-nitrophenyl acetate, excipients 500 μM except F68, EL35, RH40, lecithin, PVP, sodium alginate 100 μg/ml
Structure (SMILES),"inhibition type, imidapril hydrolase activity [1]","p-nitrophenyl acetate hydrolase activity, percentage of control (recombinant human CES1A1 [2]; [4]) [%]","IC50, p-nitrophenyl acetate hydrolase activity (recombinant human CES1A1 [2]; 150 μM substrate) [µg/mL]","p-nitrophenyl acetate hydrolase activity, percentage of control (recombinant human CES2; [4])","IC50, p-nitrophenyl acetate hydrolase activity (recombinant human CES2; 150 μM substrate) [µg/mL]","imidapril hydrolase activity, percentage of control (recombinant human CES1A1 [3]; 100 μM imidapril, excipients 500 μM except F68, EL35, RH40, lecithin, PVP, sodium alginate 100 μg/ml, control 1.83 nmol/min/mg) [%]","inhibition type, imidapril hydrolase activity (recombinant human CES1A1 [3]; recombinant CES1A1)","Ki, imidapril hydrolase activity (recombinant human CES1A1 [3]; recombinant CES1A1, imidapril 25-200 μM, mean ± S.E.) [µg/mL]",Ki (CES1A1 and CES2) [nM]
"CCCCCCCCCCCCOS(=O)(=O)[O-].[Na+] [SLS, sodium lauryl sulphate]",competitive-type,3.6,0.20,30–60%,0.30,2.9,competitive-type,0.04 ± 0.01,–
CCC(C)(C)C(=O)O[C@H]1C[C@@H](C)C=C2C=C[C@H](C)[C@H](CC[C@@H]3C[C@@H](O)CC(=O)O3)[C@H]21 [simvastatin],–,–,–,–,–,–,–,–,110
Cc1c(C)c2c(c(C)c1O)CCC(C)(COc1ccc(CC3SC(=O)NC3=O)cc1)O2 (stereo not shown) [troglitazone],–,–,–,–,–,–,–,–,620
